Source: US20040071687A1, “Adult stem cell recruitment” (priority 2002, published 2004)

How the values were obtained:
[1] = tested on: human CD34+ cells; assay: In vitro transmigration through reconstituted basement membranes (Matrigel transwell); assay type: cell-based; details: for migration of CD34+ cells: Matrigel-coated transwell, SDF-1 100 ng/ml in lower chamber, inhibitor in both chambers (CGS 27023A 1 nM; 5-phenyl-1,10-phenanthroline 1 mM)
Protocol: Substrate zymography. Supernatants from human MACS-isolated CD34^+ (5×10^3) cells were collected after overnight incubation in serum-free medium with/without SDF-1 (150 ng/ml R&D-Systems) or VEGF (50 ng/ml, PeproTech). MMP activity was determined by gelatin zymography (Lane et al., 2000).
In vitro transmigration through reconstituted basement membranes. […] CD34^+ cells were added to 8 μm pore Matrigel-coated (BD) transwell inserts (Costar, Cambridge Mass.). […] Transmigrated cells were quantified, placed in a clonogenic assay and in long-term cultures to measure the number of CAFC and LTC-IC (Jo et al., 2000).

[2] = tested on: MS-5 murine stromal cells; assay: Release of sKitL from stromal cell line cultures; assay type: cell-based; details: MS-5 cells, serum-free medium, 24 hours
Protocol: Stromal cell line cultures. […] Immunoassay for chemokines and cytokines. Plasma levels of SDF-1, VEGF, and sKitL were measured using commercially available ELISA (R&D Systems).

[3] = tested on: lethally irradiated syngeneic mice; assay: Bone marrow repopulating assay with mobilized PBMCs; assay type: in vivo; details: for long-term engraftment of lethally irradiated syngeneic mice transplanted with mobilized PBMCs: PBMCs from SCID mice given AdSDF-1, AdVEGF or G-CSF, no MPI, n=12
Protocol: Bone marrow repopulating assay. Chemo/cytokine-mobilized PBMCs from SCID mice treated with/without MPI were collected on day 7. PBMCs from G-CSF-treated MMP-9^−/− and MMP-9^+/+ mice were collected on day 5. Mobilized PBMCs (10^5) were injected into lethally irradiated syngeneic animals (9.5 Gy). Survival was monitored.

[4] = tested on: lethally irradiated syngeneic recipients; assay: CFU-S assay; assay type: in vivo; details: chemokine/cytokine-treated SCID mice given metalloproteinase inhibitor
Protocol: CFU-S assay. Mobilized peripheral blood mononuclear cells (10^5/mouse) of chemokine-treated SCID mice were injected i.v. into lethally irradiated syngeneic recipients (9 Gy). Spleens were removed 12 days later and fixed in Bouin's solution. The number of macroscopic spleen colonies was scored.

[5] = tested on: white blood cells and hematopoietic progenitors (CFU-Cs); assay: Mobilization of white blood cells and progenitors (peripheral blood analysis, CFU-C); assay type: in vivo, mice; details: for mobilization of mature white blood cells and hematopoietic progenitors (CFU-Cs): plasma elevation in MMP-9+/+ mice, but not in MMP-9−/− mice
Protocol: (§1) Mobilization of bone marrow-derived cells by adenovirus delivered factors. […] The vector was injected i.v. as a single dose. Recombinant G-CSF (R&D Systems, MN) was administered subcutaneously daily from day 0-5 at 50 μg/kg body weight. Recombinant murine KitL (peproTech, NJ) was injected s.c. twice a day at 100 or 200 μg/kg body weight.
Peripheral blood analysis. Blood was collected with capillary pipettes by retro-orbital bleeding and WBC counts were determined by using a hemocytometer. Peripheral blood mononuclear cells (PBMCs) were isolated from heparinized blood after centrifugation over a discontinuous gradient using Lympholyte-M (Cedarlane, Ontario, Canada).
Progenitor assay. Peripheral blood mononuclear cells (10^5) were plated in Iscove's modified Dulbecco's medium (IMDM) containing 1.2% methylcellulose (Fisher Scientific, NJ), 30% FBS, 5×10^−3M 2-mercaptoethanol 2 mM L-glutamine, 0.5 mM hemin (Sigma), murine KitL (20 ng/ml), human erythropoietin (6U/ml) and murine IL-3 (50 ng/ml). Colonies (>50 cells) were scored after 7 days (37° C., 5% CO2).

[6] = tested on: sKitL; assay: Plasma sKitL by ELISA after adenoviral vector or cytokine treatment; assay type: in vivo; details: MMP-9+/+ mice, five days after treatment
Protocol: as §1
Immunoassay for chemokines and cytokines. Plasma levels of SDF-1, VEGF, and sKitL were measured using commercially available ELISA (R&D Systems).

[7] = tested on: MMP-9; assay: Immunohistochemistry for MMP-9 in bone marrow sections; assay type: in vivo; details: wild type mice; SDF-1 and VEGF by adenoviral vector, G-CSF recombinant
Protocol: Immunohistochemistry. Bone marrow sections were deparaffinized, rehydrated through an alcohol series immersed in 0.1% H2O2 and blocked using an Avidin and Biotin blocking kit (Vector, Burlingame, Calif.). For MMP-9 staining, the M.O.M. immunodetection kit (Vector) was used as recommended. Sections were incubated with MMP-9 mAb (clone 7-11C, Oncogene, MA) for 30 min, washed in PBS, incubated with a biotinylated horse anti-mouse IgG and incubated for 5 min with A&B reagents (Vector). Von Willebrand Factor (vWF) immunohistochemistry was performed on deparaffinized sections, treated with 3% H2O2, incubated with 0.05% Pronase E (Sigma). Sections were stained with anti-human vWF/HRP (Dako). Sections were developed with 3,3′-diaminobenzidine substrate and counterstained with eosin and hematoxylin.

[8] = tested on: circulating endothelial progenitors (CEPs); assay: Endothelial progenitor assay (CFU-EC, VEGFR2+ cells); assay type: in vivo; details: wild type mice, elevated plasma levels
Protocol: Endothelial progenitor assay. Circulating bone marrow-derived CEPs were quantified by colony forming unit-endothelial cell (CFU-EC) as previously described (Hattori et al. 2001a). Mobilized PBMCs were cultured in M199 media (GIBCO-BRL, Gaithersburg, Md.) supplemented with 20% FBS (HyClone, UT), ECGF (30 μg/ml), human FGF-basic (Sigma) and heparin. After 5 weeks of culture, adherent cells were scored for colonies (>10 cells). Endothelial colonies were identified by metabolic uptake of DiI-Acetylated-LDL (1 μg/ml; PerImmune Inc, Rockville, Md.) at 37° C. for 5 hours, and visualized fluorescence microscopy. The number of VEGFR2^+ cells was quantified by FACS using a Cy2-labeled mAb to VEGFR2 (clone DC101, ImClone, NY), (Hattori et al. 2001a).

[9] = tested on: MMP-9−/− and MMP-9+/+ mice; assay: 5-FU myelosuppression: survival and hematopoietic recovery
Protocol: Administration of 5-FU. MMP-9^−/− and MMP-9^+/+ mice were injected with the cell cycle cytotoxic agent 5-fluorouracil (5-FU) to deplete cycling hematopoietic cells. In particular, 250 mg/kg body weight 5-FU (Pharmacia & Upjohn Company) was administered intravenously (i.v.). At specified time points, mice were sacrificed. Femurs were flushed and bone marrow cells were used for cell cycle analysis or subjected to magnetic bead isolation (MACS) (Miltenyi Biotec). Lineage-negative bone marrow cells were isolated by MACS after labeling the cells with a depletion cocktail of lineage-specific monoclonal antibodies (mAbs), including CD5, CD45R, CD11b, Gr-1, TER119, 7/4 (Stem Cell Technology, Canada). Lin^− cells were MACS isolated with mAb against Sca-1. […] For cell cycle analysis whole bone marrow cells of MMP-9^−/− and MMP-9^+/+ mice were labeled with Sca-1-FITC. Lin^−Sca-1^+bone marrow cells were labeled with c-Kit-FITC. Labeled bone marrow cells and Lin^−Sca-1^+cells were fixed in ice-cold ethanol for 30 min. After RNAase treatment (Sigma, MO), cells were stained with propidium iodide (Molecular-Probes, Oregon). The DNA content of Sca-1 and Lin^−Sca-1^+c-Kit^+ cells was determined by FACS (Coulter flow cytometer). […]
Peripheral blood analysis. Blood was collected with capillary pipettes by retro-orbital bleeding and WBC counts were determined by using a hemocytometer. […]

[10] = tested on: Sca-1+ bone marrow cells; assay: Cell cycle analysis of bone marrow Sca-1+ cells after 5-FU; assay type: in vivo, mice
Protocol: Administration of 5-FU. MMP-9^−/− and MMP-9^+/+ mice were injected with the cell cycle cytotoxic agent 5-fluorouracil (5-FU) to deplete cycling hematopoietic cells. In particular, 250 mg/kg body weight 5-FU (Pharmacia & Upjohn Company) was administered intravenously (i.v.). At specified time points, mice were sacrificed. Femurs were flushed and bone marrow cells were used for cell cycle analysis or subjected to magnetic bead isolation (MACS) (Miltenyi Biotec). Lineage-negative bone marrow cells were isolated by MACS after labeling the cells with a depletion cocktail of lineage-specific monoclonal antibodies (mAbs), including CD5, CD45R, CD11b, Gr-1, TER119, 7/4 (Stem Cell Technology, Canada). Lin^− cells were MACS isolated with mAb against Sca-1. […] For cell cycle analysis whole bone marrow cells of MMP-9^−/− and MMP-9^+/+ mice were labeled with Sca-1-FITC. Lin^−Sca-1^+bone marrow cells were labeled with c-Kit-FITC. Labeled bone marrow cells and Lin^−Sca-1^+cells were fixed in ice-cold ethanol for 30 min. After RNAase treatment (Sigma, MO), cells were stained with propidium iodide (Molecular-Probes, Oregon). The DNA content of Sca-1 and Lin^−Sca-1^+c-Kit^+ cells was determined by FACS (Coulter flow cytometer).

COc1ccc(S(=O)(=O)N(Cc2cccnc2)[C@@H](C(=O)NO)C(C)C)cc1 [CGS 27023A] was tested, and the “migration of CD34+ cells” value [1] was “completely blocked”, the “release of sKitL” value [2] was “blocked” and the “time within which all recipient mice died” value ([3]; recipients of PBMCs from MPI-treated mice) was at most 19 days. The “mobilization of hematopoietic cells with short-term repopulating potential (CFU-S)” value [4] was “completely blocked” and the “white blood cell counts and chemokine-induced mobilization” value ([5]; MMP-9 competent mice (data not shown)) was “decreased white blood cell counts and blocked chemokine-induced mobilization”.

With VEGF the “release of pro-MMP-9 and migration of human CD34+ progenitor and stem cells” value ([1]; transwell migration assay, chemoattractant) was “stimulate the release of pro-MMP-9 and induce migration”, the “plasma sKitL levels compared to untreated animals” value [6] was “increased plasma sKitL levels” and the “long-term engraftment of lethally irradiated syngeneic mice transplanted with mobilized PBMCs” value [3] was 40%. For the same molecule, the “immunoreactive MMP-9 in bone marrow stromal and hematopoietic cells” value [7] was “increased immunoreactive MMP-9”, the “mobilization of mature white blood cells and hematopoietic progenitors (CFU-Cs)” value [5] was “mobilized mature white blood cells” and the “mobilization of circulating endothelial progenitors (CFU-EC, VEGFR2)” value [8] was “increased the mobilization of circulating endothelial progenitors”.

In the case of O=c1[nH]cc(F)c(=O)[nH]1 [5-FU, 5-fluorouracil], the “survival of 5-FU-treated mice” value ([9]; MMP-9+/+, mouse, in vivo, iv) is reported as “all of the MMP-9^+/+ mice survived”, the “death of 5-FU-treated mice” value ([9]; MMP-9−/− mice, single i.v. dose, n=16) is reported as 72% and the “total number of Sca-1+ cells in S-phase” value ([10]; MMP-9+/+ mice, day 6 after 5-FU) is reported as 2.2±0.05 ×10^5/femur. The “total number of Sca-1+ cells in S-phase” value ([10]; MMP-9+/+ mice, day 10 after 5-FU) was 11.5±0.3 ×10^5/femur, the “total number of Sca-1+ cells in S-phase” value ([10]; MMP-9−/− mice, day 6 after 5-FU) was 1.0±0.03 ×10^5/femur and the “total number of Sca-1+ cells in S-phase” value ([10]; MMP-9−/− mice, day 10 after 5-FU) was 2.1±0.04 ×10^5/femur.

c1ccc(-c2cc3cccnc3c3ncccc23)cc1 [5-phenyl-1,10-phenanthroline] was tested, and the “migration of CD34+ cells” value [1] was “completely blocked”.

B1: G-CSF: recombinant granulocyte colony stimulating factor (R&D Systems), s.c. daily day 0-5 (protein, UniProt P09919 31-207, looked up)
Granulocyte …: TPLGPASSLPQSFLLKCLEQVRKIQGDGAALQEKLVSECATYKLCHPEELVLLGHSLGIPWAPLSSCPSQALQLAGCLSQLHSGLFLYQGLLQALEGISPELGPTLDTLQLDVADFATTIWQQMEELGMAPALQPTQGAMPAFASAFQRRAGGVLVASHLQSFLEVSYRVLRHLAQP
B1 was tested, and the “plasma sKitL levels compared to untreated animals” value [6] was “increased plasma sKitL levels”, the “survival of transplanted recipients” value ([3]; MMP-9+/+ mice, PBMCs obtained day 5, n=8/group) was 100% and the “day by which all mice died” value ([3]; MMP-9−/− mice treated with G-CSF, n=8/group) was about 18 days. The “long-term engraftment of lethally irradiated syngeneic mice transplanted with mobilized PBMCs” value [3] was 80%, the “immunoreactive MMP-9 in bone marrow stromal and hematopoietic cells” value [7] was “increased immunoreactive MMP-9” and the “mobilization of mature white blood cells and hematopoietic progenitors (CFU-Cs)” value [5] was “mobilized mature white blood cells”.
